Results as given in PMC10065791 (eLife, 2023).
Read-outs that look alike come from different tables or passages of the source.

Key:
wild-type virus NL4-3 = assay: TZM infection assay (cell culture-based viral inhibition), wild-type virus; set-up: species or system HIV-1; details: Human immunodeficiency virus 1, NL43; wild-type NL4-3 virus; concentration at time of virus production reducing infectivity by 50%; TZM-bl readout
Method: (§1) PI dilutions were prepared by taking 10 µM stocked and performing a fivefold serial dilution using RPMI media (final drug concentration is […]). One dilution of drug was added to each well of a 24-well plate and repeated so each virus would have a full set of dilutions. Viruses for the assay were made by seeding 3 × 10^6 CEM cells in a 24-well plate and incubating with 250 µl of virus at 37°C for 2–3 hr before bringing the culture to 10 ml with RPMI media. After 48 hr, the medium was changed and repeated every 48 hr after until the culture had undergone CPE. Infected CEM cells were collected and diluted so that 1 ml of cells could be plated in each well containing a unique drug dilution. Then 24 hr later the virus supernatant was collected from each well followed by filtering through a […] then placed in –80°C. Viruses were thawed and added to 96-well plates in triplicate. TZM-bl cells were collected and diluted to a concentration of 2 × 10^5 cells/ml, 100 µl were added on top of the pre-plated viruses. Plates were kept in 37°C, 5% CO2 in an incubator for 48 hr. After 48 hr, the cells in the plates were lysed by removing the medium, washing two times with 100 µl PBS, and then lysed with 1× lysis buffer (made from 5× Promega Firefly Lysis Buffer). Plates were frozen for at least 24 hr and then thawed for 2 hr before analyzing with Promega Firefly Luciferase Kit on a luminometer. Data was analyzed with Prism 7 to fit sigmoidal dose–response curves.

[1] = system: virus pool selected to 5000 nM inhibitor; assay: TZM infection assay, inhibitor-selected resistant virus pools; assay type: cell-based, HIV-1; details: Human immunodeficiency virus 1, read-out: EC50 Viral culture (5000 nM)
Method: In addition to the sequence of the terminally selected virus, we validated that selection occurred over the entire course of the selection protocol. […] In comparing the number of mutations present in cultures using the I84V versus the I50V pathway, we noted that on average there were more mutations in the I50V viruses at the intermediate drug concentration compared to the I84V viruses (100 nM, p=0.03), and this trend continued at the higher drug concentration.
(§2) An aliquot of 3 × 10^6 CEMx174 cells was incubated at 37°C for 2–3 hr with 250 µl of a virus stock generated from the HIV-1 infectious molecular clone pNL4-3. The culture volume was then brought to 10 ml with RPMI medium. […] After 48 hr and every 48 hr after, the cells were pelleted by centrifugation and 10 ml of fresh medium and inhibitors were added. When the culture had undergone extensive cytopathic effect (CPE) indicative of viral replication, the supernatant medium and the cells were harvested separately and stored at –80°C. The virus-containing supernatant was used to start the next round of infection, and after several rounds at the initial concentration, the inhibitor concentration was increased 1.5-fold at each subsequent round of virus passage.
as §1

[2] = system: HIV-1 NL4-3 wild-type virus; assay: Selection for resistance in CEMx174 culture with escalating inhibitor, start wild-type virus, Primer ID deep sequencing; assay type: cell-based
Method: . The selection experiments were performed under two separate starting conditions: first when the starting virus was generated from the NL4-3 clone (this clone closely approximates the clade B consensus for the protease amino acid sequence and will be referred to as ‘wild type’), then again when the starting virus was a mixture of 26 isogenic viruses each with a single mutation associated with drug resistance in the NL4-3 background. […]. For technical reasons, only five of the selections starting with the mixture of mutants reached an inhibitor concentration as high as 400 nM and are reported here (Figure 2—figure supplement 3).
Resistance mutations selected in the protease coding domain during the escalating selective pressure of increasing PI concentration were examined at various timepoints using a next-generation sequencing (NGS) protocol that included Primer ID with the MiSeq platform ([Zhou et al., 2015]). We first examined the sequence of the most abundant variant in each of the two selection schemes present at the highest inhibitor concentration reached (Figure 2A). For those selections that reached 5 μM, 8–14 mutations were present in the most abundant variant. Typically the next two most abundant variants in the population differed by a single amino acid, and on average the three most abundant variants in the 5 μM cultures accounted for 88% of the total viral population (Figure 2—source data 1). Evolution of resistance followed two pathways, one based on I50V and one based on I84V. In three cultures, V2wt, V5wt, and V2mut (which reached either 4 or 5 μM final drug concentration; V2wt indicates the virus pool selected with UMASS-2 starting with wild-type virus), these two mutations, I84V and I50V, became linked on the same genome (Figure 2A) showing they are not mutually exclusive; […].
as §2
We used the PID protocol to prepare MiSeq PID libraries with multiplexed primers. Viral RNA was extracted from plasma samples using the QIAamp viral RNA mini kit (QIAGEN, Hilden, Germany). Complementary DNA (cDNA) was synthesized using a cDNA primer mixture targeting protease (PR) with a block of random nucleotides in each cDNA primer serving as the PID, and SuperScript III RT (Thermo Fisher). After two rounds of bead purification of the cDNA, we amplified the cDNA using a mixture of a forward primer that targeted the upstream coding region, followed by a second round of PCR to incorporate the Illumina adaptor sequences. Gel-purified libraries were pooled and sequenced using the MiSeq 300 base paired-end sequencing protocol (Illumina). The sequencing covered the HIV-1 PR region (HXB2 2648-2914, 3001-3257).
We used the Illumina bcl2fastq pipeline for the initial processing and constructed template consensus sequences (TCSs) with TCS pipeline version 1.33 (https://github.com/SwanstromLab/PID) ([Zhou, 2019]). We then aligned TCSs to an HXB2 reference to remove sequences not at the targeted region or that had large deletions. We used the Entropy tool at LANL (https://www.hiv.lanl.gov/content/sequence/ENTROPY/entropy.html) to calculate entropy for each specimen. The sequencing data is available at NIH Sequencing Read Archive (SRA) under BioProject ID PRJNA853351.

[3] = molecular target: T1, I50V/A71V mutant protease (Human immunodeficiency virus type 1 group M subtype B, UniProt P12497, A559V/I538V/Q495K); set-up: method as in Lockbaum et al. (ACS Infect Dis. 2019 Feb 8; 5 (2): 316–325); details: I50V/A71V drug-resistant protease variant; previously reported; ref Lockbaum et al. (ACS Infect Dis. 2019 Feb 8; 5 (2): 316–325); cited from earlier work
T1 construct: the gene encoding the desired HIV-1 protease was subcloned into the heat-inducible pXC35 expression vector; made in house

wild-type NL4-3 protease [4] = molecular target: T2, wild-type NL4-3 protease (Human immunodeficiency virus type 1 group M subtype B, UniProt P12497, Q495K); set-up: method as in Lockbaum et al. (ACS Infect Dis. 2019 Feb 8; 5 (2): 316–325); details: previously reported, ref Lockbaum et al. (ACS Infect Dis. 2019 Feb 8, 5 (2): 316–325), read-out: Ki WT; cited from earlier work
T2 construct: the gene encoding the desired HIV-1 protease was subcloned into the heat-inducible pXC35 expression vector; made in house

I84V mutant protease [5] = molecular target: T3, I84V mutant protease (Human immunodeficiency virus type 1 group M subtype B, UniProt P12497, I572V/Q495K); set-up: method as in Lockbaum et al. (ACS Infect Dis. 2019 Feb 8; 5 (2): 316–325); details: I84V drug-resistant protease variant; previously reported; ref Lockbaum et al. (ACS Infect Dis. 2019 Feb 8; 5 (2): 316–325); cited from earlier work
T3 construct: the gene encoding the desired HIV-1 protease was subcloned into the heat-inducible pXC35 expression vector; made in house

I84V mutant protease [6] = molecular target: T3, I84V mutant protease; assay: Ki assay (FRET enzyme inhibition), I84V protease; assay type: biochemical, HIV-1; details: I84V drug-resistant protease variant
Method: (§3) The highly mutated, resistant, protease variant genes were purchased on a pET11a plasmid with codon optimization for protein expression in Escherichia coli (Genewiz). A Q7K mutation was included to prevent autoproteolysis ([Rosé et al., 1993]). The expression, isolation, and purification of WT and mutant HIV-1 proteases used for enzymatic assays were carried out as previously described ([Henes et al., 2019]; [King et al., 2002]; [Özen et al., 2014]). Briefly, the gene encoding the desired HIV-1 protease was subcloned into the heat-inducible pXC35 expression vector (ATCC) and transformed into E. coli TAP-106 cells. Cells grown in 6 l of Terrific Broth were lysed with a cell disruptor twice, and the protein was purified from inclusion bodies ([Hui et al., 1993]). Inclusion bodies, isolated as a pellet after centrifugation, were dissolved in 50% acetic acid followed by another round of centrifugation at 19,000 rpm for 30 min to remove insoluble impurities. Size-exclusion chromatography was carried out on a 2.1 l Sephadex G-75 Superfine (Sigma Chemical) column equilibrated with 50% acetic acid to separate high molecular weight proteins from the desired protease. Pure fractions of HIV-1 protease were refolded using a tenfold dilution of refolding buffer (0.05 M sodium acetate at pH 5.5, 5% ethylene glycol, 10% glycerol, and 5 µM DTT). Folded protein was concentrated to 0.5–3 mg/ml and stored. The stored protease was used in KM and Ki assays.
(§4) Enzyme inhibition constants (Ki values) were determined as previously described ([Henes et al., 2019]; [Lockbaum et al., 2019]; [Matayoshi et al., 1990]; [Windsor and Raines, 2015]). Briefly, in a 96-well plate, inhibitors were serially diluted down from […] depending on protease resistance. All samples were incubated with 5 nM protein for 1 hr. A 10-amino acid substrate containing an optimized protease cleavage site ([Windsor and Raines, 2015]), purchased from Bachem, with an EDANS/DABCYL FRET pair was dissolved in 4% DMSO at 120 µM. Using a PerkinElmer Envision plate reader, 5 µl of the 120 µM substrate were added to the 96-well plate to a final concentration of 10 µM. […] Data was analyzed with Prism7.

[7] = molecular target: T1, I50V/A71V mutant protease; assay: Ki assay (FRET enzyme inhibition), I50V/A71V protease; assay type: biochemical, HIV-1; details: I50V/A71V drug-resistant protease variant
Method: as §3, §4

wild-type NL4-3 protease [8] = molecular target: T2, wild-type NL4-3 protease; assay: Ki assay (FRET enzyme inhibition), wild-type protease; assay type: biochemical, HIV-1; details: limit of detection 5 pM, read-out: Ki WT
Method: as §3, §4

For `CC(C)CN(C[C@@H](O)[C@H](Cc1ccccc1)NC(=O)O[C@H]1CO[C@H]2OCC[C@H]21)S(=O)(=O)c1ccc(N)cc1` [DRV, Darunavir, reference compound], the EC50 (wild-type virus NL4-3) was 7.7 ± 1.6 nM, the EC50 [1] was over 100000 nM and the “Abundance of variant at the last time point” value (“Abundance of variant” below) ([2]; variant 10I/32I/41I/46I/47V/82I/84V/85V, passage 43, [PI] 1350 nM) was 10.3%. The “Abundance of variant” value ([2]; variant 32I/41I/46I/47V/82I/84V/85V, passage 43, [PI] 1350 nM) was 62.8% and the “Abundance of variant” value ([2]; variant 32I/41I/46I/47V/82L/84V/85V, passage 43, [PI] 1350 nM) was 10.1%.

With `CC[C@H](C)CN(C[C@@H](O)[C@H](Cc1ccccc1)NC(=O)O[C@H]1CO[C@H]2OCC[C@H]21)S(=O)(=O)c1ccc(N)cc1` [UMASS-1] the EC50 (wild-type virus NL4-3) was 5.9 ± 1 nM, the “Abundance of variant” value ([2]; variant 10I/16E/32I/33F/46I/54L/71V/76V/82I/84V, passage 75, [PI] 5000 nM) was 55.4% and the “Abundance of variant” value ([2]; variant 10I/16E/32I/33F/46I/54L/71V/76V/82I/84V/91S, passage 75, [PI] 5000 nM) was 6.2%. The “Abundance of variant” value ([2]; variant 10I/32I/33F/46I/54L/71V/76V/82I/84V, passage 75, [PI] 5000 nM) was 21.9%, the Ki [3] was 0.11 ± 0.0088 nM and the Ki (wild-type NL4-3 protease [4]) was under 0.005 nM. The Ki (I84V mutant protease [5]) was 0.0261 ± 0.0037 nM.

In the case of `CC[C@H](C)CN(C[C@@H](O)[C@H](Cc1ccccc1)NC(=O)O[C@H]1CO[C@H]2OCC[C@H]21)S(=O)(=O)c1ccc(OC)cc1` [UMASS-2], the EC50 (wild-type virus NL4-3) is reported as 2.4 ± 0.3 nM, the Ki (I84V mutant protease [6]) is reported as under 0.005 nM and the Ki [7] is reported as 0.015 ± 0.0027 nM. The “Abundance of variant” value ([2]; variant 10F/33F/46I/47V/50V/71V/82I/84V, passage 82, [PI] 5000 nM) was 37.5%, the “Abundance of variant” value ([2]; variant 28S/32I/33F/46I/47V/50V/71V/82I/84V, passage 82, [PI] 5000 nM) was 33.5% and the “Abundance of variant” value ([2]; variant 33F/46I/47V/50V/71V/82I/84V, passage 82, [PI] 5000 nM) was 4.2%. The Ki (wild-type NL4-3 protease [8]) was under 0.005 nM.

Molecule `CCC(CC)CN(C[C@@H](O)[C@H](Cc1ccccc1)NC(=O)O[C@H]1CO[C@H]2OCC[C@H]21)S(=O)(=O)c1ccc(CO)cc1` [UMASS-8] has an EC50 (wild-type virus NL4-3) of 4.2 ± 0.9 nM, a Ki (I84V mutant protease [6]) of under 0.005 nM and a Ki [7] of 0.0554 ± 0.004 nM. The “Abundance of variant” value ([2]; variant 10F/12K/33F/46I/47V/50V/53L/54L/63P/71V/82I/85V, passage 67, [PI] 5000 nM) was 55.4%, the “Abundance of variant” value ([2]; variant 10F/12K/33F/46I/47V/50V/53L/54L/63P/71V/82I/85V/87K, passage 67, [PI] 5000 nM) was 0.1% and the “Abundance of variant” value ([2]; variant 10F/33F/46I/47V/50V/53L/54L/63P/71V/82I/85V, passage 67, [PI] 5000 nM) was 41.9%. For the same molecule, the Ki (wild-type NL4-3 protease [8]) was under 0.005 nM.

With `CCC(CC)CN(C[C@@H](O)[C@H](Cc1ccccc1)NC(=O)O[C@H]1CO[C@H]2OCC[C@H]21)S(=O)(=O)c1ccc2ncsc2c1` [UMASS-10] the EC50 (wild-type virus NL4-3) was 4.1 ± 0.9 nM, the Ki (I84V mutant protease [6]) was 0.0143 ± 0.0093 nM and the Ki [7] was 0.0058 ± 0.0011 nM. For the same molecule, the “Abundance of variant” value ([2]; variant 10F/13V/33F/43T/46I/47V/50V/54L/71V/77I/82L/88S, passage 77, [PI] 5000 nM) was 1.6%, the “Abundance of variant” value ([2]; variant 10F/13V/33F/43T/46I/47V/50V/54L/71V/82L/87K/88S, passage 77, [PI] 5000 nM) was 0.2% and the “Abundance of variant” value ([2]; variant 10F/13V/33F/43T/46I/47V/50V/54L/71V/82L/88S, passage 77, [PI] 5000 nM) was 91.2%. For the same molecule, the Ki (wild-type NL4-3 protease [8]) was under 0.005 nM.
